The values below come from patent US11180462B2, “Microbiocidal oxadiazole derivatives” (SYNGENTA PARTICIPATIONS AG, priority 2015, dated 2021).

Bounds are passed on as bounds.

In assay [1] the test system is Glomerella lagenarium (Colletotrichum lagenarium). Nature of the assay: Fungicidal activity against Glomerella lagenarium (Colletotrichum lagenarium) liquid culture / cucumber / preventative (anthracnose). It counts as cell-based. The conditions noted are these: Colletotrichum orbiculare; 20 ppm in the applied formulation; liquid culture (PDB), growth inhibition measured photometrically after 3 to 4 days; compared to untreated control; read-out: disease control. Put shortly: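 Photometric read-out of fungal growth after 2–7 days, expressed as percent antifungal activity versus untreated check. Cryo-stored conidia in PDB; compound at 20 ppm; dark, 24 °C, 96% RH.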

In assay [2] the test system is Puccinia recondita f. Sp. Tritici. Nature of the assay: Fungicidal activity against Puccinia recondita f. sp. tritici / wheat / leaf disc preventative (brown rust). The assay is classed as in vivo. The conditions noted are these: foliar, 200 ppm in the applied formulation, wheat leaf segments, preventative, compared to untreated control leaf disks, read-out: disease control. Summed up:
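Compound application precedes infection: segments of wheat cv. Kanzler, sprayed at 200 ppm, are inoculated with a spore suspension after 1 day. Incubation is at 19° C. with 75% relative humidity and 12 h light/12 h darkness, and control versus untreated leaves is rated 7 to 9 days post-application.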

On to `CCCCC(=O)N(Cc1ccc(-c2noc(C(F)(F)F)n2)cc1)CC1CCCO1` (centres unmarked) [Compound 1.453, N-(tetrahydrofuran-2-ylmethyl)-N-[[4-[5-(trifluoromethyl)-1,2,4-oxadiazol-3-yl]phenyl]methyl]-pentanamide], for which the inhibition of growth at 20 ppm in assay [1] was at least 80%. Moreover, the pest or weed control at 200 ppm in assay [2] was at least 80%.
For `O=C(c1ccccc1Cl)N(Cc1ccc(-c2noc(C(F)(F)F)n2)cc1)C1CC1` [Compound 1.120, 2-chloro-N-cyclopropyl-N-[[4-[5-(trifluoromethyl)-1,2,4-oxadiazol-3-yl]phenyl]methyl]-benzamide], the inhibition of growth at 20 ppm in assay [1] was at least 80%. The pest or weed control at 200 ppm in assay [2] was at least 80%.
With `CC#CC(=O)N(Cc1ccc(-c2noc(C(F)(F)F)n2)cc1)CC1CCCO1` (centres unmarked) [Compound 1.410, N-(tetrahydrofuran-2-ylmethyl)-N-[[4-[5-(trifluoromethyl)-1,2,4-oxadiazol-3-yl]phenyl]methyl]-2-ynamide], in assay [1], the inhibition of growth at 20 ppm is at least 80%. Besides, in assay [2], the pest or weed control at 200 ppm was at least 80%.
As to `CCC(C)N(Cc1ccc(-c2noc(C(F)(F)F)n2)cc1)C(=O)c1ccoc1` (centres unmarked) [Compound 1.405, N-sec-butyl-N-[[4-[5-(trifluoromethyl)-1,2,4-oxadiazol-3-yl]phenyl]methyl]-furan-3-carboxamide], in assay [1], the inhibition of growth at 20 ppm was at least 80%. Also, the pest or weed control at 200 ppm in assay [2] is at least 80%.
With `O=C(c1cc2c(cc1Br)OCO2)N(Cc1ccc(-c2noc(C(F)(F)F)n2)cc1)C1CC1` [Compound 1.133, 6-bromo-N-cyclopropyl-N-[[4-[5-(trifluoromethyl)-1,2,4-oxadiazol-3-yl]phenyl]methyl]-1,3-benzodioxole-5-carboxamide], the inhibition of growth at 20 ppm in assay [1] was at least 80%. For the same compound, the pest or weed control at 200 ppm in assay [2] was at least 80%.
For `C#CCN(Cc1ccc(-c2noc(C(F)(F)F)n2)cc1)C(=O)CC1CCCC1` [Compound 1.152, 2-cyclopentyl-N-prop-2-ynyl-N-[[4-[5-(trifluoromethyl)-1,2,4-oxadiazol-3-yl]phenyl]methyl]-acetamide], in assay [1], the inhibition of growth at 20 ppm is at least 80%. For the same compound, the pest or weed control at 200 ppm in assay [2] is at least 80%.
As for `CC1(C(=O)N(Cc2ccc(-c3noc(C(F)(F)F)n3)cc2)C2CC2)CC1(Cl)Cl` (centres unmarked) [Compound 1.107, 2,2-dichloro-N-cyclopropyl-1-methyl-N-[[4-[5-(trifluoromethyl)-1,2,4-oxadiazol-3-yl]phenyl]methyl]-cyclopropane-carboxamide], in assay [1], the inhibition of growth at 20 ppm is at least 80%. The pest or weed control at 200 ppm in assay [2] was at least 80%.
On to `C#CCOC(C(=O)N(Cc1ccc(-c2noc(C(F)(F)F)n2)cc1)OC)c1ccc(Cl)cc1` (centres unmarked) [Compound 1.69, 2-(4-chlorophenyl)-N-methoxy-2-prop-2-ynoxy-N-[[4-[5-(trifluoromethyl)-1,2,4-oxadiazol-3-yl]phenyl]methyl]-acetamide], for which the inhibition of growth at 20 ppm in assay [1] was at least 80%. For the same compound, the pest or weed control at 200 ppm in assay [2] was at least 80%.
`COCCN(Cc1ccc(-c2noc(C(F)(F)F)n2)cc1)C(=O)C=CC(F)(F)F` [Compound 1.338, 4,4,4-trifluoro-N-(2-methoxyethyl)-N-[[4-[5-(trifluoromethyl)-1,2,4-oxadiazol-3-yl]phenyl]methyl]but-2-enamide]: the inhibition of growth at 20 ppm in assay [1] was at least 80%. In assay [2], the pest or weed control at 200 ppm was at least 80%.
As for `CC#CC(=O)N(Cc1ccc(-c2noc(C(F)(F)F)n2)cc1)C(C)CC` (centres unmarked) [Compound 1.367, N-sec-butyl-N-[[4-[5-(trifluoromethyl)-1,2,4-oxadiazol-3-yl]phenyl]methyl]-but-2-ynamide], the inhibition of growth at 20 ppm in assay [1] is at least 80%. In assay [2], the pest or weed control at 200 ppm was at least 80%.
